Data: PubChem BioAssay (NCI)
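Each compound was tested at five concentrations against cells in 96-well plates for 48 hours. The concentration for 50% growth inhibition is given as GI50. TGI marks complete inhibition of growth.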

Experiments:
Assay in all cases: NCI anticancer screen, dose series, 48 h
LXFL 529 NSCLC = test system: LXFL 529 NSCLC
SNB-78 CNS = test system: SNB-78 CNS
HOP-18 NSCLC = test system: HOP-18 NSCLC
KM20L2 colon = test system: KM20L2 colon
DLD-1 colon = test system: DLD-1 colon
DMS 273 small cell lung = test system: DMS 273 small cell lung
RXF-631 renal = test system: RXF-631 renal
XF 498 CNS = test system: XF 498 CNS
MDA-N = test system: MDA-N

Structure (SMILES)	TGI (LXFL 529 NSCLC)	TGI (SNB-78 CNS)	TGI (HOP-18 NSCLC)	TGI (KM20L2 colon)	TGI (DLD-1 colon)	TGI (DMS 273 small cell lung)	TGI (RXF-631 renal)	TGI (XF 498 CNS)	TGI (MDA-N)	GI50 (LXFL 529 NSCLC)	GI50 (SNB-78 CNS)	GI50 (DLD-1 colon)	GI50 (HOP-18 NSCLC)	GI50 (KM20L2 colon)	GI50 (MDA-N)	GI50 (DMS 273 small cell lung)
CS(=O)(=O)N(CCC#N)c1ccc(/C=N/NC(=O)CC(=O)Nc2cccc(Cl)c2)cc1	> 100 µM	> 100 µM	> 100 µM	> 100 µM	> 100 µM	> 100 µM	–	–	–	–	–	–	–	–	–	–
COc1ccc(S(=O)(=O)N/N=C/CN2C(=O)c3ccccc3C2=O)cc1OC	> 100 µM	–	–	> 100 µM	> 100 µM	> 100 µM	> 100 µM	> 100 µM	–	–	–	–	–	–	–	–
CC(C)COC(=O)N1N=NC2C3OC(CC3=O)C21 (stereo not given)	> 100 µM	–	> 100 µM	> 100 µM	> 100 µM	> 100 µM	–	> 100 µM	–	–	–	–	–	–	–	–
C=CCC12CCC(=O)C=C1CCC1(C2)OCCO1 (stereo not given)	> 100 µM	> 100 µM	> 100 µM	> 100 µM	> 100 µM	> 100 µM	> 100 µM	–	–	–	–	–	–	–	–	–
CCOC(=O)C(=O)C1C(=O)Nc2ccccc21 (stereo not given)	> 100 µM	–	–	–	> 100 µM	> 100 µM	> 100 µM	> 100 µM	–	–	–	–	–	–	–	–
Oc1ccc2occ3c2c1CCC3	> 100 µM	> 100 µM	> 100 µM	> 100 µM	> 100 µM	> 100 µM	> 100 µM	> 100 µM	–	–	–	–	–	–	–	–
NC1C2C(CC(=O)O)OCC=C3CN4CCC1(C(=O)C(=O)O)C4CC32 (stereo not given)	–	–	–	–	–	–	–	–	> 100 µM	–	–	–	–	–	–	–
CC1=C(C)CC2(SC1)C(=O)c1ccccc1C2=O	> 100 µM	> 100 µM	> 100 µM	> 100 µM	> 100 µM	> 100 µM	> 100 µM	–	–	–	–	–	–	–	–	–
O=C(O)CNS(=O)(=O)c1ccc(NC(=O)c2ccc(F)cc2)cc1	> 100 µM	–	> 100 µM	> 100 µM	> 100 µM	> 100 µM	> 100 µM	> 100 µM	–	–	–	–	–	–	–	–
CCN(CC)CC(=O)/C=C/c1ccc(C)cc1	33 µM	> 100 µM	59.6 µM	49.4 µM	59.6 µM	55 µM	–	92.4 µM	–	–	–	–	–	–	–	–
CCN(CC)c1ccc(N=C2C=CC(=O)c3ncccc32)c(C)c1	8.67 µM	31.2 µM	22.8 µM	26.5 µM	12 µM	20.6 µM	28.6 µM	5.19 µM	–	–	–	–	–	–	–	–
CC1CCC2(NC1)OC1CC3[C@@H]4CC=C5C=CCC[C@]5(C)C4CC[C@]3(C)C1C2C (stereo not given in full)	–	> 100 µM	> 100 µM	33.8 µM	58.2 µM	–	–	33 µM	–	–	–	–	–	–	–	–
C[N+](C)([O-])CCCNc1c2ccccc2nc2cccc([N+](=O)[O-])c12	–	–	–	–	–	–	–	–	0.524 µM	–	–	–	–	–	–	–
O=c1[nH]c(-c2ccccc2)nc2ccc(Cl)cc12	> 100 µM	> 100 µM	–	> 100 µM	–	> 100 µM	–	–	–	–	–	–	–	–	–	–
O=c1[nH]c(=O)n(C2CC(O)C(CO)O2)cc1C(OCC(F)(F)F)OCC(F)(F)F (stereo not given)	> 100 µM	> 100 µM	–	> 100 µM	> 100 µM	> 100 µM	> 100 µM	> 100 µM	–	–	–	–	–	–	–	–
CC(=O)NC1=C(C)C(=O)c2c(nc3n2CCC3O)C1=O (stereo not given)	41.8 µM	64.4 µM	> 100 µM	> 100 µM	> 100 µM	> 100 µM	–	38.1 µM	–	–	–	–	–	–	–	–
OCCN(CCO)c1cccc(N(CCO)CCO)c1	> 100 µM	> 100 µM	–	> 100 µM	> 100 µM	> 100 µM	> 100 µM	> 100 µM	–	–	–	–	–	–	–	–

Structure (SMILES)	TGI (LXFL 529 NSCLC)	TGI (SNB-78 CNS)	TGI (HOP-18 NSCLC)	TGI (KM20L2 colon)	TGI (DLD-1 colon)	TGI (DMS 273 small cell lung)	TGI (RXF-631 renal)	TGI (XF 498 CNS)	TGI (MDA-N)	GI50 (LXFL 529 NSCLC)	GI50 (SNB-78 CNS)	GI50 (DLD-1 colon)	GI50 (HOP-18 NSCLC)	GI50 (KM20L2 colon)	GI50 (MDA-N)	GI50 (DMS 273 small cell lung)
Cn1cc(NC(=O)c2cc(NC(=O)Nc3cc(C(=O)Nc4cc(C(=O)NCCC(=N)N)n(C)c4)n(C)c3)cn2C)cc1C(=O)NCCC(=N)N	> 100 µM	82 µM	> 100 µM	> 100 µM	> 100 µM	29.6 µM	56.9 µM	45.8 µM	–	–	–	–	–	–	–	–
CO/C(=N\N=C\c1ccc(Cl)cc1Cl)c1ccncc1	–	–	–	–	–	–	–	–	> 10 µM	–	–	–	–	–	–	–
CNS(=O)(=O)NN(C)S(=O)(=O)c1ccc(Cl)cc1	> 100 µM	–	–	> 100 µM	> 100 µM	> 100 µM	> 100 µM	> 100 µM	–	–	–	–	–	–	–	–
COc1cc(N=Nc2ccccc2)cc(/C=N\[N-]C(N)=S)c1[O-].COc1cc(N=Nc2ccccc2)cc(/C=N\[N-]C(N)=S)c1[O-].[Fe+4]	> 100 µM	> 100 µM	–	–	> 100 µM	–	–	–	–	13.7 µM	> 100 µM	18.5 µM	–	–	–	–
NC1CCCCC1N.O=C([O-])P(=O)([O-])[O-].[Na+].[Pt+4] (stereo not given)	> 100 µM	> 100 µM	> 100 µM	> 100 µM	> 100 µM	–	–	–	–	> 100 µM	> 100 µM	> 100 µM	> 100 µM	> 100 µM	–	–
CC(=N\O)/C(C)=N/O.CC(=N\O)/C(C)=N/O.CC(=N\O)/C(C)=N/O.CC(=N\O)/C(C)=N/O.[Cu].[Cu]	–	–	–	–	–	–	–	–	43.5 µM	–	–	–	–	–	20.5 µM	–
O=C(Nc1c(Cl)cc([N+](=O)[O-])cc1Cl)C(=O)C1C(=O)NC(=S)NC1=O	–	–	–	–	–	–	–	–	> 100 µM	–	–	–	–	–	–	–
Cc1cc2c(cc1C)[n+](=O)c(C(=O)/C=C/c1ccc(Cl)cc1)c(C)n2[O-]	> 100 µM	> 100 µM	> 100 µM	> 100 µM	70.9 µM	> 100 µM	–	68.6 µM	–	–	–	–	–	–	–	–
CN(C)c1ccc(/C=C/C(=O)C(C)(C)C)cc1Br	92.4 µM	> 100 µM	> 100 µM	79.5 µM	43.9 µM	–	–	30.3 µM	–	–	–	–	–	–	–	–
N=S(=O)(c1ccccc1)c1ccccc1[N+](=O)[O-] (stereo not given)	> 100 µM	> 100 µM	> 100 µM	> 100 µM	> 100 µM	> 100 µM	> 100 µM	> 100 µM	–	–	–	–	–	–	–	–
Cc1ccc(C(=O)O/N=C2/CCCCC2CN(C)C)cc1 (stereo not given)	> 100 µM	> 100 µM	> 100 µM	> 100 µM	> 100 µM	> 100 µM	> 100 µM	–	–	–	–	–	–	–	–	–
CCON=C1C(C)(C)C(C)(C)C(C)(C)C1(C)C	–	–	–	–	–	–	–	–	> 100 µM	–	–	–	–	–	–	–
COc1cccc2c1C1(O)C2CCCC12OCCCO2 (stereo not given)	> 100 µM	> 100 µM	> 100 µM	> 100 µM	> 100 µM	> 100 µM	–	–	–	–	–	–	–	–	–	–
CCNc1c(C(=O)N(CC)CC)c(=O)[nH]c2ncccc12	> 100 µM	> 100 µM	–	> 100 µM	> 100 µM	> 100 µM	–	–	–	–	–	–	–	–	–	–
O=S(=O)([O-])[O-].[Cl-].[NH2-].[NH2-].[NH2-].[NH2-].[Ru+3].c1ccc(-c2cccnc2)cc1	> 100 µM	> 100 µM	–	> 100 µM	> 100 µM	> 100 µM	–	–	–	> 100 µM	> 100 µM	> 100 µM	–	> 100 µM	–	> 100 µM
CCNC(=O)/C=C/CCC#Cc1ccc(-c2ccc(-c3cccs3)s2)s1	> 100 µM	> 100 µM	> 100 µM	> 100 µM	> 100 µM	> 100 µM	–	7.19 µM	–	–	–	–	–	–	–	–
